The results in this text go back to ChEMBL document CHEMBL5465560, “Selectivity Literature for EUbOPEN Chemogenomic Library” (2024).

Assay [1] concerns the target Serine/threonine-protein kinase WNK3 (Homo sapiens) (UniProt Q9BYP7). Kind of assay: Selectivity interaction (LanthaScreen Eu Kinase Binding Assay) EUB0001632a WNK3. Particulars: at 10 µM.
Assay [2] deals with 5'-AMP-activated protein kinase catalytic subunit alpha-2 (Homo sapiens) (UniProt P54646). The assay can be described thus: Selectivity interaction (KinomeScan (DiscoverX)) EUB0000595a PRKAA2. Conditions: at 10 µM.
In assay [3] the target is Dual specificity mitogen-activated protein kinase kinase 1 (Homo sapiens, UniProt Q02750). Kind of assay: Selectivity interaction (ActivX KiNativ screen (ex vivo kinase selectivity in human PBMCs)) EUB0001619a MAP2K1. Conditions: PBMC, at 1 µM. It counts as cell-based.
The target of assay [4] is T1, Discoidin domain-containing receptor 2 (Homo sapiens) (UniProt Q16832).
T1 sequence (whole entry): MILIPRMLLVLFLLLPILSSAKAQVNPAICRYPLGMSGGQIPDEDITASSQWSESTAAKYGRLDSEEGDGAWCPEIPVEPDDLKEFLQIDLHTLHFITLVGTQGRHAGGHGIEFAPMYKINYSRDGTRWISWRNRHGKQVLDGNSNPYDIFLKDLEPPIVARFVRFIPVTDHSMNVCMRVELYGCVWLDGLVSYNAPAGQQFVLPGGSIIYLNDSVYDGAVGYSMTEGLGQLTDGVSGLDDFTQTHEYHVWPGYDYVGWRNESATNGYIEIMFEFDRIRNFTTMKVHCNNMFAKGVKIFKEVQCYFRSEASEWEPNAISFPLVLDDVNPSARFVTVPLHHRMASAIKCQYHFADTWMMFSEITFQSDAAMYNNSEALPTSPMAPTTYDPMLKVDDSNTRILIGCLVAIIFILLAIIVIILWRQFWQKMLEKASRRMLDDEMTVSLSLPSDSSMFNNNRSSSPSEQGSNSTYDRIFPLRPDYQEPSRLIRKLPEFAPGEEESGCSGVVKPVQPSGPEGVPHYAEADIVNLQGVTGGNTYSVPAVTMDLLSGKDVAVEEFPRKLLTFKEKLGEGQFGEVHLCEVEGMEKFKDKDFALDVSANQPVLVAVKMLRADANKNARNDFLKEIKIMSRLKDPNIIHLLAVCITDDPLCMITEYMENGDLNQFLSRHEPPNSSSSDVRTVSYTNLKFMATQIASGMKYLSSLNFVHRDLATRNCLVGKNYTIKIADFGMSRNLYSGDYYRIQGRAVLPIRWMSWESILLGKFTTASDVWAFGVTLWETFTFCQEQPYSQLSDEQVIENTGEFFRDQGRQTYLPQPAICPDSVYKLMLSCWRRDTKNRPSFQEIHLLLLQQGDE
Kind of assay: Selectivity interaction (KinomeScan (DiscoverX)) EUB0001619a DDR2. Conditions: at 1 µM.

Assay [5] has as its target Tyrosine-protein kinase JAK2 (Homo sapiens, UniProt O60674). The assay can be described thus: Selectivity interaction (KinomeScan (DiscoverX)) EUB0000666a JAK2. Particulars: at 10 µM.
Assay [6] addresses Serine/threonine-protein kinase MRCK beta (Homo sapiens) (UniProt Q9Y5S2). Kind of assay: Selectivity interaction (KinomeScan (DiscoverX)) EUB0000607a CDC42BPB. Conditions: at 10 µM.
The target in assay [7] is Casein kinase I isoform alpha (Homo sapiens, UniProt P48729). Kind of assay: Selectivity interaction (ActivX KiNativ screen (kinase selectivity in THP-1 cell lysates)) EUB0000639a CSNK1A1. In kind it is subcellular. Particulars: lysate, at 0.01 µM.
For assay [8], the target named is Serine/threonine-protein kinase MARK2 (Homo sapiens) (UniProt Q7KZI7). The assay can be described thus: Selectivity interaction (ActivX KiNativ screen (kinase selectivity in THP-1 cell lysates)) EUB0000639a MARK2. In kind it is subcellular. Conditions: lysate, at 1 µM.
Assay [9] addresses Tyrosine-protein kinase Fer (Homo sapiens) (UniProt P16591). Kind of assay: Selectivity interaction (ProQinase) EUB0000171b FER.
In assay [10] the target is Calcium/calmodulin-dependent protein kinase type II subunit beta (Homo sapiens) (UniProt Q13554). Kind of assay: Selectivity interaction (KinomeScan (DiscoverX)) EUB0000655a CAMK2B. Conditions: at 10 µM.
For assay [11], the target named is T2, Mitogen-activated protein kinase 13 (Homo sapiens) (UniProt O15264).
T2 sequence (whole entry): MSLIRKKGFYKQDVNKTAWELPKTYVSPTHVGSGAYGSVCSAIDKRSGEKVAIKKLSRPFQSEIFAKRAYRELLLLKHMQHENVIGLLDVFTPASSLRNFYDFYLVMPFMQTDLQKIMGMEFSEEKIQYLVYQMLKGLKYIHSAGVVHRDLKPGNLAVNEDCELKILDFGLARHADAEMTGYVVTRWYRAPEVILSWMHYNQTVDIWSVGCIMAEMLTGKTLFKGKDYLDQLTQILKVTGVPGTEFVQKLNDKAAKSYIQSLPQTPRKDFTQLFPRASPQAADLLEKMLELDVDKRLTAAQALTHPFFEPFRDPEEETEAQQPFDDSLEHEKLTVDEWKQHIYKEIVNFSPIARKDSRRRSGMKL
Kind of assay: Selectivity interaction (Kinase panel (DSF assay)) EUB0001558a MAPK13. On the technique in general: Differential scanning fluorimetry follows unfolding on heating by fluorescence.

The target in assay [12] is BMP-2-inducible protein kinase (Homo sapiens) (UniProt Q9NSY1). The assay can be described thus: Selectivity interaction (KinomeScan (DiscoverX)) EUB0001079a BMP2K. Particulars: at 1 µM.
For assay [13], the target named is T3, Dual specificity mitogen-activated protein kinase kinase 7 (Homo sapiens) (UniProt O14733).
T3 sequence (whole entry): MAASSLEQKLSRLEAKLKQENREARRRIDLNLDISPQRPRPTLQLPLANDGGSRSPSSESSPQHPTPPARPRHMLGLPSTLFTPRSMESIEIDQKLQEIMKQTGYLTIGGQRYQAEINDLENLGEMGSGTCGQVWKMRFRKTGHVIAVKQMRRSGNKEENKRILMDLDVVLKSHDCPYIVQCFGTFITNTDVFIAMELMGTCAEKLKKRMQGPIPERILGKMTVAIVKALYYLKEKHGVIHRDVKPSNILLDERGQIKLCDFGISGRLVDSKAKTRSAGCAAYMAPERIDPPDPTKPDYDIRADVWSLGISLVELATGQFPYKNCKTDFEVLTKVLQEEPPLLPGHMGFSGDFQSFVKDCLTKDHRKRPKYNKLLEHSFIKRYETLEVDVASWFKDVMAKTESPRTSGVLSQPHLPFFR
The assay can be described thus: Selectivity interaction (KinomeScan (DiscoverX)) EUB0001079a MAP2K7. Conditions: at 1 µM.

The target of assay [14] is Serine/threonine-protein kinase RIO2 (Homo sapiens) (UniProt Q9BVS4). The assay can be described thus: Selectivity interaction (KinomeScan (DiscoverX)) EUB0000229b RIOK2. Conditions: at 10 µM.

Molecules are shown by their SMILES.

Sequence of Tyrosine-protein kinase Fer (Homo sapiens) (P16591 whole entry, looked up): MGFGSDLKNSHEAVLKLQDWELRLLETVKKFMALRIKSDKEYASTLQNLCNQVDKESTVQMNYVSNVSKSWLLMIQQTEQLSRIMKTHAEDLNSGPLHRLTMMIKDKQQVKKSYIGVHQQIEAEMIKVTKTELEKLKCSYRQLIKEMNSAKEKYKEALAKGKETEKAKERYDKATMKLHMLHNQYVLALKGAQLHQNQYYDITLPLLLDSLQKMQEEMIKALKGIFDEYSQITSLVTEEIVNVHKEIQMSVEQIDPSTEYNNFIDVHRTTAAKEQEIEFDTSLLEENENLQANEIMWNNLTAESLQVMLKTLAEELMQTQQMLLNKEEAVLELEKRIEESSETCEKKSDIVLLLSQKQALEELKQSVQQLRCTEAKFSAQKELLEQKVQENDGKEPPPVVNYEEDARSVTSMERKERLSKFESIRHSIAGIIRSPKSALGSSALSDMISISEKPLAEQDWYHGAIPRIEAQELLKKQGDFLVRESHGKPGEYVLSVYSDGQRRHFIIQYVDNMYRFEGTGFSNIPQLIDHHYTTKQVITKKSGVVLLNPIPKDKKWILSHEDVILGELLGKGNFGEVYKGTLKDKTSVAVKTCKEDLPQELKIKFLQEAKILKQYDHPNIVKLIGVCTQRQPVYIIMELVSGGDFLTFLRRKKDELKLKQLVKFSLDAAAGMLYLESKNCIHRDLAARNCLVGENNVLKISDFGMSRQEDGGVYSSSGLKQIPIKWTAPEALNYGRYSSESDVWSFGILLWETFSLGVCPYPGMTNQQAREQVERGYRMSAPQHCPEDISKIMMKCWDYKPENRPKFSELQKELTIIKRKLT
Sequence of BMP-2-inducible protein kinase (Homo sapiens) (Q9NSY1 whole entry, looked up): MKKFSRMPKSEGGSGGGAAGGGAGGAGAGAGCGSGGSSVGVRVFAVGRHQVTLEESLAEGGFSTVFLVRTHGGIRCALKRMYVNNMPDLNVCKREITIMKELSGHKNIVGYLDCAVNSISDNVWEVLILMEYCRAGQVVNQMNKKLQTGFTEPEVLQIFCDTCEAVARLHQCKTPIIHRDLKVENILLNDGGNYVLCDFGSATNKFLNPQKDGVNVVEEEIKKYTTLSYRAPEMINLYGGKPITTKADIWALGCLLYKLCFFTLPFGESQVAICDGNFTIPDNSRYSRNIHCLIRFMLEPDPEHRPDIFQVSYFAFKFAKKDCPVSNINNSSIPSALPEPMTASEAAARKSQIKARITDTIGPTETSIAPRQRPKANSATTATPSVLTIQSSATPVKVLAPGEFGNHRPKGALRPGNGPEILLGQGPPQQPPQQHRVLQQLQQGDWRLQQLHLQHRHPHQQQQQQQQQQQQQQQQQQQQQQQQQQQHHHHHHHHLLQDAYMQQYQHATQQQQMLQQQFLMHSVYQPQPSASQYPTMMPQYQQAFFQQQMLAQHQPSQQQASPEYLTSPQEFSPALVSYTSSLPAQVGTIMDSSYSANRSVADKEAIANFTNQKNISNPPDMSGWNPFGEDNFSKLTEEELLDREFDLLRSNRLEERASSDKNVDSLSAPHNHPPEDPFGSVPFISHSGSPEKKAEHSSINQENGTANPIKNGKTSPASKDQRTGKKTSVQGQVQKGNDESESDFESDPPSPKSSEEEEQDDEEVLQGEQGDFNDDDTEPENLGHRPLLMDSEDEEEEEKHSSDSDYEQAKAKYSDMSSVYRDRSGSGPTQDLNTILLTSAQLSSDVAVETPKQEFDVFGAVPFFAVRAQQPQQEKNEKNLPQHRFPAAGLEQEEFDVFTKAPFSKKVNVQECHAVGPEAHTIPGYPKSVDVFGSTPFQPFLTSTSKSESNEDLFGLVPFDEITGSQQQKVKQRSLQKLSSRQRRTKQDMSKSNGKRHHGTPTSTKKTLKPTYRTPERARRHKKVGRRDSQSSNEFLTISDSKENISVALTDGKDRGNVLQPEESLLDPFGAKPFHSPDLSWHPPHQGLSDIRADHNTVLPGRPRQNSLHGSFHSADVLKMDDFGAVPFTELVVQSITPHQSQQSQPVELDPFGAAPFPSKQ
Sequence of Dual specificity mitogen-activated protein kinase kinase 1 (Q02750 whole entry, the tested form may be a part): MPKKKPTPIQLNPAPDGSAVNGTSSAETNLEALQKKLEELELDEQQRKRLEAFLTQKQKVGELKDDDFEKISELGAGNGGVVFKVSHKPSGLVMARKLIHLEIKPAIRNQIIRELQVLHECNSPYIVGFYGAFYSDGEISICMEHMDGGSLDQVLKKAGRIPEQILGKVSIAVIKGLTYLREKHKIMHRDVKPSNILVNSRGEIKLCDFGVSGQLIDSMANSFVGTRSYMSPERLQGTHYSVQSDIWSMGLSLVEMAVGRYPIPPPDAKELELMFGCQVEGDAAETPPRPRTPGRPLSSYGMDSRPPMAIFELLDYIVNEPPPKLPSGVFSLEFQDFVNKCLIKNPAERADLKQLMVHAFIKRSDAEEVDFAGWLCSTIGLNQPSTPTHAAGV
Sequence of Serine/threonine-protein kinase WNK3 (Homo sapiens) (Q9BYP7 whole entry): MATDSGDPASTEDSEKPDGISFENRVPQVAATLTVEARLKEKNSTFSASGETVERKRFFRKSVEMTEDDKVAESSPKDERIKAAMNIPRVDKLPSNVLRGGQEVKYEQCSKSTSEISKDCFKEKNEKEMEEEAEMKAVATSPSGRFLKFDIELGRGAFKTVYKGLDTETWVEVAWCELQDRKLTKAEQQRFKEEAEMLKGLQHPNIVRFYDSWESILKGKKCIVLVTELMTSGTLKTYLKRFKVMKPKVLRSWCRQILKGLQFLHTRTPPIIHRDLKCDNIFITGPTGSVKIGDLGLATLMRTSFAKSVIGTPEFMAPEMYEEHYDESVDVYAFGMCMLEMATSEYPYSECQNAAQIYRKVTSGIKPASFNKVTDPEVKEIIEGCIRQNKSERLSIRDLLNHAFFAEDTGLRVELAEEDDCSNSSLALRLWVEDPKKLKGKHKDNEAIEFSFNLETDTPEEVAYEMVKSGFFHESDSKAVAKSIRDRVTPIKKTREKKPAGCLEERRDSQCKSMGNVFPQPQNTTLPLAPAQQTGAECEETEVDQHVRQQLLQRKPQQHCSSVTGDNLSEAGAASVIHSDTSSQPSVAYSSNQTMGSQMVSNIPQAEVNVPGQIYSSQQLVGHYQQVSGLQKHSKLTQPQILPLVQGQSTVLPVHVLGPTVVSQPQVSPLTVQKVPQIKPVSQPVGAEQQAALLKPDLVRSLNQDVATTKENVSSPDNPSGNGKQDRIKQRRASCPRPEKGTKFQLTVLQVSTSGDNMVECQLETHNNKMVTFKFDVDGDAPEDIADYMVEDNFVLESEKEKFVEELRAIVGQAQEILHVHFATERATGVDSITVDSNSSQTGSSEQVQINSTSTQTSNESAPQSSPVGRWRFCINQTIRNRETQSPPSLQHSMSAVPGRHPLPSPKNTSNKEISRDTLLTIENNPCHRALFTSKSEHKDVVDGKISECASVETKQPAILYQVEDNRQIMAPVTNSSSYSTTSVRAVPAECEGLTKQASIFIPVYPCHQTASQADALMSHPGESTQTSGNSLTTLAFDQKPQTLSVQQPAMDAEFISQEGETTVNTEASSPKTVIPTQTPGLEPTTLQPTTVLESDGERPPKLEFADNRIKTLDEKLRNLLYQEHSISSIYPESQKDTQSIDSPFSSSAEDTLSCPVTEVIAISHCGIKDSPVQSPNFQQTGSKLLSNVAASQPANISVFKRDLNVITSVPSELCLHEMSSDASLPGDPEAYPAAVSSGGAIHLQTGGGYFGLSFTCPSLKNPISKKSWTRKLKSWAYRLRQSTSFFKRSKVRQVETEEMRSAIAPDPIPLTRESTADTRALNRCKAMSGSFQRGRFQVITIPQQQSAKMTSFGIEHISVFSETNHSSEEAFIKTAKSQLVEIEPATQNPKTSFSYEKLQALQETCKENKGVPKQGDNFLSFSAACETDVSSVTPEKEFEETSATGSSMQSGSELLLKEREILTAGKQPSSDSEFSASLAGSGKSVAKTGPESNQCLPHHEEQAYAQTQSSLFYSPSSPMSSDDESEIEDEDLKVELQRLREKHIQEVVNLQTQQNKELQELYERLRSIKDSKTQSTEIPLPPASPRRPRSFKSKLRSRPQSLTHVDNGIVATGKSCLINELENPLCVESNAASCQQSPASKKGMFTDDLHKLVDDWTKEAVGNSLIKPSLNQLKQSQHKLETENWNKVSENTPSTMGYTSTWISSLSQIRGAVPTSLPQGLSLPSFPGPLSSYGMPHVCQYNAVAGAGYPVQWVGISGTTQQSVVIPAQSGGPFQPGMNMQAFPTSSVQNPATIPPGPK
Sequence of Serine/threonine-protein kinase RIO2 (Homo sapiens) (Q9BVS4 whole entry, looked up): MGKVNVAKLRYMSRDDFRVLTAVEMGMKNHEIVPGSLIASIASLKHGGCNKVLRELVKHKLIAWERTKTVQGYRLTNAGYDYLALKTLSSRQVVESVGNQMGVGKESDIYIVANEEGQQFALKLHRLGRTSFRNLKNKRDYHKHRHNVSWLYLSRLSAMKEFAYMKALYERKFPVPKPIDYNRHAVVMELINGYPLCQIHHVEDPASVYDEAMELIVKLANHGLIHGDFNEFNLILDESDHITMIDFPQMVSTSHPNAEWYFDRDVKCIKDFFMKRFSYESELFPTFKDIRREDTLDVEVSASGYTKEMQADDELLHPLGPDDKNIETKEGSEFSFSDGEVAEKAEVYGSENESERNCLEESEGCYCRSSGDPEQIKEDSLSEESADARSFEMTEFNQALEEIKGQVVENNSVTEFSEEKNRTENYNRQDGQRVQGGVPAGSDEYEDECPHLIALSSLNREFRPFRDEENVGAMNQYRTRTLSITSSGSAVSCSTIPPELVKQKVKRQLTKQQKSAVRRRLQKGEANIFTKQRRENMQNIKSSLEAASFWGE
Sequence of Casein kinase I isoform alpha (P48729 2-337 limits assumed): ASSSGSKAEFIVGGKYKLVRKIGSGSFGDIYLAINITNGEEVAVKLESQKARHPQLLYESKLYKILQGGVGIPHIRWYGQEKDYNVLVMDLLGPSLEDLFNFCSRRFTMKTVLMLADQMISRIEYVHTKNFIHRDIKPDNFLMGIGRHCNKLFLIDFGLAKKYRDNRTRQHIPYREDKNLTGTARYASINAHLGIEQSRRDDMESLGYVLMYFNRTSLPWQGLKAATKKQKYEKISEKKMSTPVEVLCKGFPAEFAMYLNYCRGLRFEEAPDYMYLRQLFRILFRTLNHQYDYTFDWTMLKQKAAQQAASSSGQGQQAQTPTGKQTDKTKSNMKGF

Regarding `Cn1cc(-n2cnc3c(NCc4nc5cc(Cl)c(Cl)cc5[nH]4)nc(N4CCOCC4)nc32)cn1`, the % of inhibition in assay [1] was -35.1%.

For the compound `COCC(=O)NC/C=C/c1ccc2ncnc(Nc3ccc(Oc4ccc(C)nc4)c(C)c3)c2c1` [CP-724714], the % of control in [2] turned out to be 100%.

For the compound `N#Cc1cccc(-c2c[nH]c3ncnc(N4CCOCC4)c23)c1`, the % of inhibition in assay [3] was 6%. Further, the % of control in [4] amounted to 71%.

For the compound `O=C(NOC[C@H](O)CO)c1ccc(F)c(F)c1Nc1ccc(I)cc1F`, the % of control in [5] came out at 100%.

Consider `CNC(=O)Nc1ccc(-c2nc(N3CC4CCC(C3)O4)c3cnn(C4CCC5(CC4)OCCO5)c3n2)cc1`, for which, in [6], the % of control is 100%.

Take `CC[C@@H]1[C@H](F)C(=O)N[C@@H]1COc1nccc2cc(C(N)=O)c(OC)cc12` [ZIMLOVISERTIB]: the % of inhibition in assay [7] turned out to be 2.1%; in assay [8], 26.6%.

On to `C=CC(=O)Nc1cccc(C(=O)Nc2ccc(Nc3cc(-c4[nH]c(SC)nc4C)ccn3)cc2)c1`, for which the % of control in [9] (at 1 µM) amounted to 104%; in assay [9] (at 5 µM) it was 93%.

Regarding `CN(C)CCOc1ccc(-c2nc(-c3ccncc3)c(-c3ccc4c(c3)CC/C4=N\O)[nH]2)cc1`, in [10], the % of control stood at 98%.

`CC(C)(O)[C@H](F)CN1Cc2cc(NC(=O)c3cnn4cccnc34)c(N3CCOCC3)cc2C1=O`: in [11], the dTM was -0.3 K.

Take `Nc1cnc(N2CCc3cc(S(=O)(=O)Nc4c(F)cc(Cl)cc4F)cc(N4CCCC4=O)c32)nc1` [TP-020n]: the figures for the % of control in assay [12] and in assay [13] were 88% and 100%, respectively.

Regarding `COc1cc(N(C)c2ccnc3ccc(C(F)(F)F)cc23)cc(OC)c1OC`, the % binding in assay [14] was 44%.
